Measured values taken from patent US20220023773A1, “COMPOSITIONS COMPRISING 2-[(1R,6R)-6-ISOPROPENYL-3-METHYLCYCLOHEX-2-EN-1-YL]-3-HYDROXY-5-PENTYLPHENOLATE” (Natural Extraction Systems, LLC, priority 2018, published 2022).

Key:
Type in all cases: physicochemical
[1] = pH stability of the phenolate in water (color change purple to yellow-brown)
Description: 1 gram of 1R,6R CBD was dissolved in 6.6 milliliters of 0.5 molar potassium hydroxide (0.5 M KOH) in ethanol to produce 2-[(1R,6R)-6-isopropenyl-3-methylcyclohex-2-en-1-yl]-3-hydroxy-5-pentylphenolate. The solution was then diluted with 100 millimolar sodium carbonate (100 mM Na2CO3) in water to a final volume of 50 milliliters and a 2-[(1R,6R)-6-isopropenyl-3-methylcyclohex-2-en-1-yl]-3-hydroxy-5- pentylphenolate concentration of approximately 20 grams per liter. 0.5 milliliters of the 2-[(1R,6R)-6-isopropenyl-3-methylcyclohex-2-en-1-yl]-3-hydroxy-5-pentylphenolate solution was added to each of 25 test tubes containing 9.5 milliliters of 0.1 molar carbonate/bicarbonate (CO3^2−/HCO3^−) buffer according to Table 1. Each test tube contained approximately 10 milligrams of 2-[(1R,6R)-6-isopropenyl-3-methylcyclohex-2-en-1-yl]-3-hydroxy-5-pentylphenolate at a concentration of approximately 1 gram per liter, approximately 0.66% ethanol by weight, trace potassium ion, and variable sodium ion, carbonate ion, and bicarbonate ion. pH's were confirmed by multiple different measurements. […]

[2] = Determining the approximate pKa of 1R,6R CBD by color at varying sodium bicarbonate concentration; details: distilled water with sodium bicarbonate, under the test conditions, from color change
Description: Example 2. Determining the approximate pKa of IR, 6R CBD 0.5 milliliters of the 20 gram-per-liter solution of 2-[(1R,6R)-6-isopropenyl-3-methylcyclohex-2-en-1-yl]-3-hydroxy-5-pentylphenolate described in Example 1 was diluted with 9.5 milliliters of distilled water comprising varying concentrations of sodium bicarbonate, and color was monitored as shown in Table 2. pH's were confirmed by multiple different measurements.

[3] = Commercial viability of beverages comprising the phenolate (appearance in bottled water)
Description: 20 milliliters of water was removed from a 1 liter bottle of ESSENTIA® OVERACHIEVING H2O®. ESSENTIA® OVERACHIEVING H2O® contains purified water, sodium bicarbonate, dipotassium phosphate, magnesium sulfate, and calcium chloride, and its pH was determined to be about 9.5. The 20 milliliters of removed water was replaced with 20 milliliters of the 20 gram-per-liter solution of 2-[(1R,6R)-6-isopropenyl-3-methylcyclohex-2-en-1-yl]-3-hydroxy-5-pentylphenolate, which is described in Example 1, and the bottle was hermetically sealed using the screw cap top of the bottle to produce a hermetically-sealed container comprising approximately 400 milligrams of 2-[(1R,6R)-6-isopropenyl-3-methylcyclohex-2-en-1-yl]-3-hydroxy-5-pentylphenolate. The pH of the liquid was measured and determined to be about 10. […] 5 milliliters of water was removed from a 500 milliliter bottle of DASANI® purified water.
DANSANI® purified water contains purified water, magnesium sulfate, potassium chloride, and sodium chloride, and its pH was determined to be about 7.0. The 5 milliliters of removed water was replaced with 5 milliliters of the 20 gram-per-liter solution of 2-[(1R,6R)-6-isopropenyl-3-methylcyclohex-2-en-1-yl]-3-hydroxy-5-pentylphenolate, which is described in Example 1, and the bottle was hermetically sealed using the screw cap top of the bottle to produce a hermetically-sealed container comprising approximately 100 milligrams of 2-[(1R,6R)-6-isopropenyl-3-methylcyclohex-2-en-1-yl]-3-hydroxy-5-pentylphenolate. The pH of the liquid was measured and determined to be about 9.5.
0.5 milliliters of water was removed from a 500 milliliter bottle of DASANI® purified water. DANSANI® purified water contains purified water, magnesium sulfate, potassium chloride, and sodium chloride, and its pH was determined to be about 7.0. […] The pH of the liquid was measured and determined to be about 8.5.

| Structure (SMILES) | pKa ([1]; suggested from absence of color change, at least in dilute aqueous solutions (alternative: kinetic trapping)) | pKa [2] | appearance of the liquid ([3]; approximately 10 milligrams in 500 milliliter bottle of DASANI purified water, pH about 8.5) | appearance of the liquid ([3]; approximately 100 milligrams in 500 milliliter bottle of DASANI purified water, pH about 9.5) | appearance of the liquid ([3]; approximately 400 milligrams in 1 liter bottle of ESSENTIA OVERACHIEVING H2O, pH about 10) | color change from purple (phenolate) to yellow-brown (1R,6R CBD) ([1]; pH's of 9.1 and above, approximately 1 gram per liter in 0.1 molar carbonate/bicarbonate buffer, approximately 0.66% ethanol) |
| --- | --- | --- | --- | --- | --- | --- |
| C=C(C)[C@@H]1CCC(C)=C[C@H]1c1c(O)cc(CCCCC)cc1O [1R,6R CBD, 2-[(1R,6R)-6-isopropenyl-3-methylcyclohex-2-en-1-yl]-5-pentylbenzene-1,3-diol, reference compound] | < 9.1 | 8 to 8.5 |  |  |  |  |
| C=C(C)[C@@H]1CCC(C)=C[C@H]1c1c(O)cc(CCCCC)cc1O [2-[(1R,6R)-6-isopropenyl-3-methylcyclohex-2-en-1-yl]-3-hydroxy-5-pentylphenolate] |  |  | transparent and lacked discernable color | transparent and purple | purple and transparent | No color change |
